Tested on: IFN-β
Experiment: IFN-β concentration in culture supernatant of LPS-stimulated Raw264.7 cells (ELISA)
Format: cell-based
Conditions: PIPA 1, 3 or 10 μM 24 h, then LPS 20 ng/mL 16 h
Description: Raw264.7 cells, a macrophage cell line, were seeded on a 96-well plate at a cell density of 2×10^4 cells/well, and were then culture for 8 hours for adhesion. Thereafter, IRF-PIPA was added to the cultured cells to final concentrations of 1, 3, or 10 μM. After completion of the culture for 24 hours, LPS was added to the cultured cells to a final concentration of 20 ng/mL, and the obtained mixture was then cultured for 16 hours, followed by the recovery of the supernatant. The supernatant was 2-fold diluted with 1% BSA-PBS, and the IFN-β concentration was then measured by ELISA.
Raw264.7 cells, a cell line, were purchased from RIKEN Cell Bank, and were then cultured using D-MEM (Nacalai Tesque) containing 10% FBS (SIGMA-ALDRICH) and Penicillin-Streptomycin mixed solution (Nacalai Tesque).
2×10^4 Raw264.7 cells were seeded on a plate, and were then treated with IRF-PIPA 1, IRF-PIPA 2, IRF-PIPA 3 or IRF-PIPA 4 for 24 hours. Thereafter, the cells were stimulated with LPS (Lipopolysaccharide, SIGMA-ALDRICH) for 16 hours, and the culture supernatant was then recovered. The concentration of cytokine in the culture supernatant was measured using ELISA kit (R&D SYSTEMS) according to the standard protocols. The culture supernatant was diluted with 1% BSA-PBS, as necessary, and was then analyzed. 2.5×10^5 Mouse peritoneal macrophages were seeded on a plate, and were then treated with IRF-PIPA 3 for 16 or 24 hours. Thereafter, the cells were stimulated with Poly(I:C) (InvivoGen) for 16 hours or with mRNA vaccine (Moderna) for 20 to 24 hours, and the culture supernatant was then recovered. The concentration of cytokine in the culture supernatant was measured using ELISA kit (R&D SYSTEMS) according to the same standard protocols. On the other hand, the concentration of cytokine in mouse plasma was measured by administering 400 μg/mouse IRF-PIPA 3 into the abdominal cavity of wild-type mice, then administering 250 μg of Poly(I:C) into the same abdominal cavity 24 hours after the IRF-PIPA 3 administration, then collecting blood further 2 hours after the Poly(I:C) administration, and then measuring the cytokine concentration in the plasma using ELISA kit (R&D SYSTEMS) according to standard protocols.

Compound	concentration dependence of suppression of IFN-β production
CC(=O)Nc1cn(C)c(C(=O)Nc2cc(C(=O)NCCC(=O)Nc3cc(C(=O)Nc4cn(C)c(C(=O)NCCCC(=O)Nc5cc(C(=O)Nc6cc(C(=O)NCCC(=O)Nc7cc(C(=O)Nc8cc(C(=O)NCCCN(C)C)n(C)c8)n(C)c7)n(C)c6)n(C)c5)n4)n(C)c3)n(C)c2)n1 [IRF-PIPA 1]	concentration dependence was not observed
CC(=O)Nc1cn(C)c(C(=O)Nc2cc(C(=O)NCCC(=O)Nc3cc(C(=O)Nc4cc(C(=O)NCCCC(=O)Nc5cn(C)c(C(=O)Nc6cc(C(=O)NCCC(=O)Nc7cc(C(=O)Nc8cc(C(=O)NCCCN(C)C)n(C)c8)n(C)c7)n(C)c6)n5)n(C)c4)n(C)c3)n(C)c2)n1 [IRF-PIPA 2]	concentration dependence was not observed
